What follows are compounds tested against BRDT-BD2 (Homo sapiens (Human), UniProt Q58F21) (assay: AlphaScreen bromodomain proximity assay (competition with biotinylated (+)-JQ1), BRDT-BD2).
Format: binding

Compound | IC50
CNC(=O)c1ccc(C(=O)Nc2cc(NC(=O)c3ccc4c(c3)c(-c3ccc(N)nc3C)nn4C)ccc2C)cc1 [compound 14, N^1-(5-(3-(6-Amino-2-methylpyridin-3-yl)-1-methyl-1H-indazole-5-carboxamido)-2-methylphenyl)-N^4-methylterephthalamide] | 94 nM
CC(=O)Nc1cc(NC(=O)c2ccc3c(c2)c(-c2cnc(N)cc2C)nn3C)ccc1C [compound 16, N-(3-Acetamido-4-methylphenyl)-3-(6-amino-4-methylpyridin-3-yl)-1-methyl-1H-indazole-5-carboxamide] | 126 nM
COc1ccc(NC(=O)c2ccc3c(c2)c(-c2cc4ccccc4n2C)nn3C)cc1 [compound 28, N-(4-Methoxyphenyl)-1-methyl-3-(1-methyl-1H-indol-2-yl)-1H-indazole-5-carboxamide] | 121 nM
COc1ccc(NC(=O)c2ccc3c(c2)c(-c2cc4ccccc4n2C)nn3C)cc1C [compound 29, N-(4-Methoxy-3-methylphenyl)-1-methyl-3-(1-methyl-1H-indol-2-yl)-1H-indazole-5-carboxamide] | 111 nM
COc1ccc(NC(=O)c2ccc3c(c2)c(-c2cc4ccccc4n2C)nn3C)cc1OC [compound 30, N-(3,4-Dimethoxyphenyl)-1-methyl-3-(1-methyl-1H-indol-2-yl)-1H-indazole-5-carboxamide] | 101 nM
COc1ccc(NC(=O)c2ccc3c(c2)c(-c2cc4ccccc4n2C)nn3C)cc1F [compound 31, N-(3-Fluoro-4-methoxyphenyl)-1-methyl-3-(1-methyl-1H-indol-2-yl)-1H-indazole-5-carboxamide] | 119 nM
COc1ccc(NC(=O)c2ccc3c(c2)c(-c2cc4ccccc4n2C)nn3C)cc1Cl [compound 32, N-(3-Chloro-4-methoxyphenyl)-1-methyl-3-(1-methyl-1H-indol-2-yl)-1H-indazole-5-carboxamide] | 164 nM
COc1ccc(NC(=O)c2ccc3c(c2)c(-c2cc4ccccc4n2C)nn3C)c(C)c1 [compound 33, N-(4-Methoxy-2-methylphenyl)-1-methyl-3-(1-methyl-1H-indol-2-yl)-1H-indazole-5-carboxamide] | 183 nM
COc1ccc(NC(=O)c2ccc3c(c2)c(-c2cc4ccccc4n2C)nn3C)c(OC)c1 [compound 34, N-(2,4-Dimethoxyphenyl)-1-methyl-3-(1-methyl-1H-indol-2-yl)-1H-indazole-5-carboxamide] | 926 nM
COc1ccc(NC(=O)c2ccc3c(c2)c(-c2cc4ccccc4n2C)nn3C)c(F)c1 [compound 35, N-(2-Fluoro-4-methoxyphenyl)-1-methyl-3-(1-methyl-1H-indol-2-yl)-1H-indazole-5-carboxamide] | 203 nM
COc1ccc(NC(=O)c2ccc3c(c2)c(-c2cc4ccccc4n2C)nn3C)c(Cl)c1 [compound 36, N-(2-Chloro-4-methoxyphenyl)-1-methyl-3-(1-methyl-1H-indol-2-yl)-1H-indazole-5-carboxamide] | > 1250 nM
CNC(=O)c1ccc(C(=O)Nc2cc(NC(=O)c3ccc4c(c3)c(-c3ccc(OCc5ccccc5)cc3)nn4C)ccc2C)cc1 [compound 37, N^1-(5-(3-(4-(Benzyloxy)phenyl)-1-methyl-1H-indazole-5-carboxamido)-2-methylphenyl)-N^4-methylterephthalamide] | > 10000 nM
CNC(=O)c1ccc(C(=O)Nc2cc(NC(=O)c3ccc4c(c3)c(-c3ccc(N5CCNCC5)nc3)nn4C)ccc2C)cc1 [compound 38] | > 10000 nM
CNC(=O)c1ccc(C(=O)Nc2cc(NC(=O)c3ccc4c(c3)c(-c3ccc(N5CCOCC5)nc3)nn4C)ccc2C)cc1 [compound 39, N^1-Methyl-N^4-(2-methyl-5-(1-methyl-3-(6-morpholinopyridin-3-yl)-1H-indazole-5-carboxamido)phenyl)terephthalamide] | > 10000 nM
CNC(=O)c1ccc(C(=O)Nc2cc(NC(=O)c3ccc4c(c3)c(-c3ccc(Cl)cc3)nn4C)ccc2C)cc1 [compound 40, N^1-(5-(3-(4-Chlorophenyl)-1-methyl-1H-indazole-5-carboxamido)-2-methylphenyl)-N^4-methylterephthalamide] | 106 nM
CC(=O)Nc1cc(NC(=O)c2ccc3c(c2)c(-c2ccc(Cl)cc2C)nn3C)ccc1C [compound 41, N-(3-Acetamido-4-methylphenyl)-3-(4-chloro-2-methylphenyl)-1-methyl-1H-indazole-5-carboxamide] | 58 nM
CC(=O)Nc1cc(NC(=O)c2ccc3c(c2)c(-c2ccc(Cl)cc2Cl)nn3C)ccc1C [compound 42, N-(3-Acetamido-4-methylphenyl)-3-(2,4-dichlorophenyl)-1-methyl-1H-indazole-5-carboxamide] | 320 nM
COc1ccc(NC(=O)c2ccc3c(c2)c(-c2ccncc2)nn3C)cc1 [compound 43, N-(4-Methoxyphenyl)-1-methyl-3-(pyridin-4-yl)-1H-indazole-5-carboxamide] | 978 nM
COc1ccc(NC(=O)c2ccc3c(c2)c(-c2ccncc2C)nn3C)cc1 [compound 44, N-(4-Methoxyphenyl)-1-methyl-3-(3-methylpyridin-4-yl)-1H-indazole-5-carboxamide] | 705 nM

Compound | IC50
Cc1ccc(NC(=O)c2ccc3c(c2)c(-c2ccc(N)nc2)nn3C)cc1NC(=O)C1CCN(C)CC1 [compound 45, 3-(6-Aminopyridin-3-yl)-1-methyl-N-(4-methyl-3-(1-methylpiperidine-4-carboxamido)phenyl)-1H-indazole-5-carboxamide] | 58 nM
Cc1ccc(NC(=O)c2ccc3c(c2)c(-c2ccc(N)nc2)nn3C)cc1NC(=O)N1CCNCC1 [compound 46, 3-(6-Aminopyridin-3-yl)-1-methyl-N-(4-methyl-3-(piperazine-1-carboxamido)phenyl)-1H-indazole-5-carboxamide] | 79 nM
Cc1ccc(NC(=O)c2ccc3c(c2)c(-c2ccc(N)nc2)nn3C)cc1NC(=O)C1CCCCC1 [compound 47, 3-(6-Aminopyridin-3-yl)-N-(3-(cyclohexanecarboxamido)-4-methylphenyl)-1-methyl-1H-indazole-5-carboxamide] | 113 nM
Cc1ccc(NC(=O)c2ccc3c(c2)c(-c2ccc(N)nc2)nn3C)cc1NC(=O)[C@H]1CC[C@@H](N)CC1 [compound 48, N-(3-((1s,4s)-4-Aminocyclohexane-1-carboxamido)-4-methylphenyl)-3-(6-aminopyridin-3-yl)-1-methyl-1H-indazole-5-carboxamide] | 51 nM
CNC(=O)[C@H]1CC[C@H](C(=O)Nc2cc(NC(=O)c3ccc4c(c3)c(-c3ccc(N)nc3)nn4C)ccc2C)CC1 [compound 49] | 68 nM
CN1CCC(NC(=O)c2ccc3c(c2)c(-c2ccc(N)nc2)nn3C)CC1 [compound 50, 3-(6-Aminopyridin-3-yl)-1-methyl-N-(1-methylpiperidin-4-yl)-1H-indazole-5-carboxamide] | > 200 nM
CC(=O)N1CCC(NC(=O)c2ccc3c(c2)c(-c2ccc(N)nc2)nn3C)CC1 [compound 51, N-(1-Acetylpiperidin-4-yl)-3-(6-aminopyridin-3-yl)-1-methyl-1H-indazole-5-carboxamide] | > 200 nM
Cn1nc(-c2ccc(N)nc2)c2cc(C(=O)NC3CCN(C(=O)OC(C)(C)C)CC3)ccc21 [compound 52, tert-Butyl 4-(3-(6-aminopyridin-3-yl)-1-methyl-1H-indazole-5-carboxamido)piperidine-1-carboxylate] | > 200 nM
Cn1nc(-c2ccc(N)nc2)c2cc(C(=O)NC3CCNCC3)ccc21 [compound 53, 3-(6-Aminopyridin-3-yl)-1-methyl-N-(piperidin-4-yl)-1H-indazole-5-carboxamide] | > 200 nM
Cn1nc(-c2ccc(N)nc2)c2cc(C(=O)Nc3cccc(C(=O)O)c3)ccc21 [compound 54, 3-(3-(6-Aminopyridin-3-yl)-1-methyl-1H-indazole-5-carboxamido)benzoic acid] | 381 nM
Cc1ccc(NC(=O)c2ccc3c(c2)c(-c2ccc(N)cc2C)nn3C)cc1C(N)=O [compound 56, 3-(4-Amino-2-methylphenyl)-N-(3-carbamoyl-4-methylphenyl)-1-methyl-1H-indazole-5-carboxamide] | 34 nM
CNC(=O)c1cccc(NC(=O)c2ccc3c(c2)c(-c2ccc(N)cc2C)nn3C)c1 [compound 57, 3-(4-Amino-2-methylphenyl)-1-methyl-N-(3-(methylcarbamoyl)phenyl)-1H-indazole-5-carboxamide] | 29 nM
Cc1ccc(NC(=O)c2ccc3c(c2)c(-c2ccc(N)cc2C)nn3C)cc1NS(C)(=O)=O [compound 58, 3-(4-Amino-2-methylphenyl)-1-methyl-N-(4-methyl-3-(methylsulfonamido)phenyl)-1H-indazole-5-carboxamide] | 67 nM
Cc1ccc(NC(=O)c2ccc3c(c2)c(-c2ccc(N)cc2C)nn3C)cc1 [compound 60, 3-(4-Amino-2-methylphenyl)-1-methyl-N-(p-tolyl)-1H-indazole-5-carboxamide] | 91 nM
Cc1cc(N)ccc1-c1nn(C)c2ccc(C(=O)Nc3ccc(C(F)(F)F)cc3)cc12 [compound 61, 3-(4-Amino-2-methylphenyl)-1-methyl-N-(4-(trifluoromethyl)phenyl)-1H-indazole-5-carboxamide] | 898 nM
CCOc1ccc(NC(=O)c2ccc3c(c2)c(-c2ccc(N)cc2C)nn3C)cc1 [compound 62, 3-(4-Amino-2-methylphenyl)-N-(4-ethoxyphenyl)-1-methyl-1H-indazole-5-carboxamide] | 48 nM
Cc1cc(N)ccc1-c1nn(C)c2ccc(C(=O)Nc3ccc(F)cc3)cc12 [compound 63, 3-(4-Amino-2-methylphenyl)-N-(4-fluorophenyl)-1-methyl-1H-indazole-5-carboxamide] | 101 nM
Cc1cc(N)ccc1-c1nn(C)c2ccc(C(=O)Nc3ccc(Cl)cc3)cc12 [compound 64, 3-(4-Amino-2-methylphenyl)-N-(4-chlorophenyl)-1-methyl-1H-indazole-5-carboxamide] | 209 nM
COc1ccc(NC(=O)c2ccc3c(c2)c(-c2ccc(NC(C)=O)cc2C)nn3C)cc1 [compound 66, 3-(4-Acetamido-2-methylphenyl)-N-(4-methoxyphenyl)-1-methyl-1H-indazole-5-carboxamide] | > 10000 nM
